Structures are written as SMILES. Where two headings read alike, the source gives them in different places.

Consider 18 compounds from US20250276983A1, “COMPOUNDS AND METHODS FOR MODULATING HER2” (IAMBIC THERAPEUTICS, INC., priority 2022, published 2025).

What all share (type): cell-based
One assay deals with BaF3_HER2WT cells. The experiment in a line: Cell growth inhibition assay, BaF3_HER2WT. Conditions: 3 days treatment, CellTiterGlo 2.0, read-out: HER2 WT IC50 (nM), cell growth inhibition.
The subject of the next assay is BaF3_HER2YVMA cells. In words: Cell growth inhibition assay, BaF3_HER2YVMA. The settings on record: BaF3_HER2YVMA cells, 3 days treatment, CellTiterGlo 2.0, read-out: HER2-YVMA IC50 (nM), cell growth inhibition.
The test system of the next assay is BaF3_EGFRWT cells. In words: Cell growth inhibition assay, BaF3_EGFRWT. Conditions: 80 ng/mL recombinant human EGF, 3 days treatment, CellTiterGlo 2.0, read-out: EGFR WT IC50 (nM), cell growth inhibition.

With `Cc1cc(Nc2ncnn3ccc(C4CN(C(=O)/C=C/CN(C)C)C4)c23)ccc1Oc1cc2ncnn2cn1` [Example 158, (E)-1-(3-(4-((4-([1,2,4]triazolo[1,5-c]pyrimidin-7-yloxy)-3-methylphenyl)amino)pyrrolo[2,1-f][1,2,4]triazin-5-yl)azetidin-1-yl)-4-(dimethylamino)but-2-en-1-one], the IC50 with BaF3_HER2WT cells (72 h) is < 200 nM; in the assay on BaF3_HER2YVMA cells (72 h), < 200 nM; in the assay with BaF3_EGFRWT cells (72 h) it was 500 to 1500 nM.
`C=C(CN(C)C)C(=O)N1CC(c2ccn3ncnc(Nc4ccc(Oc5ccc6c(c5)ncn6C)c(C)c4)c23)C1` [Example 67, 2-((dimethylamino)methyl)-1-(3-(4-((3-methyl-4-((1-methyl-1H-benzo[d]imidazol-5-yl)oxy)phenyl)amino)pyrrolo[2,1-f][1,2,4]triazin-5-yl)azetidin-1-yl)prop-2-en-1-one]: the IC50 is < 200 nM in the assay on BaF3_HER2WT cells (72 h), < 200 nM with BaF3_HER2YVMA cells (72 h) and 500 to 1500 nM with BaF3_EGFRWT cells (72 h).
Regarding `C=C(CN(C)C)C(=O)N1CCCC(c2ccn3ncnc(Nc4ccc(Oc5ccn6ncnc6c5)c(C)c4)c23)CC1` (single isomer, unassigned) [Examples 143 and 144, second eluting isomer, 1-(4-(4-((4-([1,2,4]triazolo[1,5-a]pyridin-7-yloxy)-3-methylphenyl)amino)pyrrolo[2,1-f][1,2,4]triazin-5-yl)azepan-1-yl)-2-((dimethylamino)methyl)prop-2-en-1-one], the IC50 with BaF3_HER2WT cells was < 200 nM; with BaF3_HER2YVMA cells, < 200 nM; in the assay with BaF3_EGFRWT cells, 1500 to 5000 nM.
Regarding `Cc1cc(Nc2ncnn3ccc(C4CCN(C(=O)/C=C/[C@H]5CCCN5C)CC4)c23)ccc1Oc1ccn2ncnc2c1` [Example 25, (R,E)-1-(4-(4-((4-([1,2,4]triazolo[1,5-a]pyridin-7-yloxy)-3-methylphenyl)amino)pyrrolo[2,1-][1,2,4]triazin-5-yl)piperidin-1-yl)-3-(1-methylpyrrolidin-2-yl)prop-2-en-1-one], the IC50 is < 200 nM with BaF3_HER2WT cells (72 h), < 200 nM in the assay on BaF3_HER2YVMA cells (72 h) and 1500 to 5000 nM with BaF3_EGFRWT cells (72 h).
On to `Cc1cc(Nc2ncnn3ccc(C4CN(C(=O)/C(C#N)=C/C(C)(C)C)C4)c23)ccc1Oc1ccn2ncnc2c1` [Example 89, (E)-2-(3-(4-((4-([1,2,4]triazolo[1,5-a]pyridin-7-yloxy)-3-methylphenyl)amino)pyro-lo[2,1-f][1,2,4]triazin-5-yl)azetidine-1-carbonyl)-4,4-dimethylpent-2-enenitrile], for which the half-inhibitory concentration (IC50) with BaF3_HER2WT cells (72 h), with BaF3_HER2YVMA cells (72 h) and in the assay with BaF3_EGFRWT cells (72 h) was 1500 to 5000 nM throughout.
Take `Cc1cc(Nc2ncnn3ccc(C4CCCN(C(=O)C(F)Cl)CC4)c23)ccc1Oc1ccn2ncnc2c1` (single isomer, unassigned) [Examples 145, 146, 147 and 148, first eluting isomer, 1-(4-(4-((4-([1,2,4]triazolo[1,5-a]pyridin-7-yloxy)-3-methylphenyl)amino)pyrrolo[2,1-f][1,2,4]triazin-5-yl)azepan-1-yl)-2-chloro-2-fluoroethan-1-one]: the half-inhibitory concentration (IC50) was < 200 nM with BaF3_HER2WT cells (72 h), 200 to 500 nM in the assay with BaF3_HER2YVMA cells and 1500 to 5000 nM with BaF3_EGFRWT cells.
On to `Cc1cc(Nc2ncnn3ccc(C4CCN(C(=O)/C=C/CN5CCN(C)CC5)CC4)c23)ccc1Oc1ccn2ncnc2c1` [Example 24, (E)-1-(4-(4-((4-([1,2,4]triazolo[1,5-a]pyridin-7-yloxy)-3-methylphenyl)amino)pyrrolo[2,1-f][1,2,4]triazin-5-yl)piperidin-1-yl)-4-(4-methylpiperazin-1-yl)but-2-en-1-one], for which the IC50 in the assay on BaF3_HER2WT cells (72 h) is < 200 nM; with BaF3_HER2YVMA cells (72 h), 500 to 1500 nM; in the assay on BaF3_EGFRWT cells (72 h), 1500 to 5000 nM.
Consider `Cc1cc(Nc2ncnn3ccc(C4CCN(C(=O)C(F)Cl)CC4)c23)ccc1Oc1ccn2ncnc2c1` (stereo not drawn) [Example 35, 1-(4-(4-((4-([1,2,4]triazolo[1,5-a]pyridin-7-yloxy)-3-methylphenyl)amino)pyrrolo[2,1-f][1,2,4]triazin-5-yl)piperidin-1-yl)-2-chloro-2-fluoroethan-1-one acetate], for which the results for the IC50 with BaF3_HER2WT cells (72 h), in the assay with BaF3_HER2YVMA cells (72 h) and in the assay on BaF3_EGFRWT cells (72 h) were < 200 nM, < 200 nM and 1500 to 5000 nM, respectively.
Regarding `C=CC(=O)N1CCCC(c2ccn3ncnc(Nc4ccc(Oc5ccn6ncnc6c5)c(C)c4)c23)CC1` (stereo not drawn) [Example 9, 1-(4-(4-((4-([1,2,4]triazolo[1,5-a]pyridin-7-yloxy)-3-methylphenyl)amino)pyrrolo[2,1-f][1,2,4]triazin-5-yl)azepan-1-yl)prop-2-en-1-one], the IC50 is < 200 nM in the assay with BaF3_HER2WT cells (72 h), < 200 nM with BaF3_HER2YVMA cells (72 h) and 200 to 500 nM in the assay with BaF3_EGFRWT cells (72 h).
Regarding `CO[C@@H]1CN(C/C=C/C(=O)N2CC(c3ccn4ncnc(Nc5ccc(Oc6ccc7c(c6)ncn7C)c(C)c5)c34)C2)C[C@H]1OC` [Example 166, (E)-4-((3R,4R)-3,4-dimethoxypyrrolidin-1-yl)-1-(3-(4-((3-methyl-4-((1-methyl-1H-benzo[d]imidazol-5-yl)oxy)phenyl)amino)pyrrolo[2,1-f][1,2,4]triazin-5-yl)azetidin-1-yl)but-2-en-1-one], the IC50 is < 200 nM in the assay on BaF3_HER2WT cells (72 h), < 200 nM with BaF3_HER2YVMA cells (72 h) and 1500 to 5000 nM in the assay with BaF3_EGFRWT cells (72 h).
For `Cc1cc(Nc2ncnn3ccc(C4CCN(C(=O)/C=C/CN5CCC(F)C5)CC4)c23)ccc1Oc1ccn2ncnc2c1` (stereo not drawn) [Example 164, (E)-1-(4-(4-((4-([1,2,4]triazolo[1,5-a]pyridin-7-yloxy)-3-methylphenyl)amino)pyrrolo[2,1-f][1,2,4]triazin-5-yl)piperidin-1-yl)-4-(3-fluoropyrrolidin-1-yl)but-2-en-1-one], the 50% inhibitory concentration (IC50) with BaF3_HER2WT cells (72 h) is < 200 nM; in the assay on BaF3_HER2YVMA cells (72 h), < 200 nM; with BaF3_EGFRWT cells (72 h), 1500 to 5000 nM.
Take `C=C(CN(C)C)C(=O)N1CC2CCC1CC2c1ccn2ncnc(Nc3ccc(Oc4ccn5ncnc5c4)c(C)c3)c12` (single isomer, unassigned) [Examples 135 and 136, second eluting isomer, 1-(5-(4-((4-([1,2,4]triazolo[1,5-a]pyridin-7-yloxy)-3-methylphenyl)amino)pyrrolo[2,1-f][1,2,4]triazin-5-yl)-2-azabicyclo[2.2.2]octan-2-yl)-2-((dimethylamino)methyl)prop-2-en-1-one]: the results for the IC50 in the assay on BaF3_HER2WT cells, with BaF3_HER2YVMA cells and with BaF3_EGFRWT cells were < 200 nM, 200 to 500 nM and < 200 nM, respectively.
Take `Cc1cc(Nc2ncnn3ccc(C4CCN(C(=O)/C=C/CN(C)C)C4)c23)ccc1Oc1ccn2ncnc2c1` (single isomer, unassigned) [Examples 99 and 100, first eluting isomer, (E)-1-(3-(4-((4-([1,2,4]triazolo[1,5-a]pyridin-7-yloxy)-3-methylphenyl)amino)pyrrolo[2,1-f][1,2,4]triazin-5-yl)pyrrolidin-1-yl)-4-(dimethylamino)but-2-en-1-one]: the IC50 in the assay with BaF3_HER2WT cells (72 h) is < 200 nM; with BaF3_HER2YVMA cells it was < 200 nM; in the assay on BaF3_EGFRWT cells (72 h), 1500 to 5000 nM.
Turning to `CNC/C=C/C(=O)N1CCC(c2ccn3ncnc(Nc4ccc(Oc5ccn6ncnc6c5)c(C)c4)c23)CC1` [Example 177, (E)-1-(4-(4-((4-([1,2,4]triazolo[1,5-a]pyridin-7-yloxy)-3-methylphenyl)amino)pyrrolo[2,1-f][1,2,4]triazin-5-yl)piperidin-1-yl)-4-(methylamino)but-2-en-1-one], the IC50 with BaF3_HER2WT cells (72 h) was < 200 nM; with BaF3_HER2YVMA cells (72 h), < 200 nM; in the assay on BaF3_EGFRWT cells (72 h) it was 1500 to 5000 nM.
Regarding `Cc1cc(Nc2ncnn3ccc(C4CN(C(=O)/C=C/C5CCCN5C)C4)c23)ccc1Oc1ccn2ncnc2c1` (single isomer, unassigned) [Examples 171 and 172, second eluting isomer, (E)-1-(3-(4-((4-([1,2,4]triazolo[1,5-a]pyridin-7-yloxy)-3-methylphenyl)amino)pyrrolo[2,1-f][1,2,4]triazin-5-yl)azetidin-1-yl)-3-(1-methylpyrrolidin-2-yl)prop-2-en-1-one], the IC50 was < 200 nM with BaF3_HER2WT cells (72 h), < 200 nM in the assay with BaF3_HER2YVMA cells (72 h) and 1500 to 5000 nM with BaF3_EGFRWT cells (72 h).
Consider `C=CC(=O)N1CCC2CCC(C1)N2c1ccn2ncnc(Nc3ccc(Oc4ccn5ncnc5c4)c(C)c3)c12` (stereo not drawn) [Example 55, 1-(9-(4-((4-([1,2,4]triazolo[1,5-a]pyridin-7-yloxy)-3-methylphenyl)amino)pyrrolo[2,1-f][1,2,4]triazin-5-yl)-3,9-diazabicyclo[4.2.1]nonan-3-yl)prop-2-en-1-one], for which the IC50 with BaF3_HER2WT cells (72 h) was < 200 nM; with BaF3_HER2YVMA cells (72 h), 500 to 1500 nM; with BaF3_EGFRWT cells (72 h), 1500 to 5000 nM.
The matching figures for `Cc1cc(Nc2ncnn3ccc(C4CN(C(=O)/C(F)=C/C5CCCN5C)C4)c23)ccc1Oc1ccn2ncnc2c1` (stereo not drawn) [Example 92, (Z)-1-(3-(4-((4-([1,2,4]triazolo[1,5-a]pyridin-7-yloxy)-3-methylphenyl)amino)pyrrolo[2,1-f][1,2,4]triazin-5-yl)azetidin-1-yl)-2-fluoro-3-(1-methylpyrrolidin-2-yl)prop-2-en-1-one]: < 200 nM, < 200 nM and 1500 to 5000 nM.
The matching figures for `Cc1cc(Nc2ncnn3ccc(C4CCN(C(=O)[C@H](F)Cl)CC4)c23)ccc1Oc1ccn2ncnc2c1` (single isomer, unassigned) [Examples 173 and 174, first eluting isomer]: 200 to 500 nM, 1500 to 5000 nM and 1500 to 5000 nM.
